Data: patent US20140308357A1, “MELATONIN-BASED SOLUTIONS AND POWDERS FOR THEIR PREPARATION” (Eratech S.R.L., priority 2011, published 2014)
Values after ≈ are worked out from the molar mass of the structure shown.

Legend:
[1] = Solubility of the powder for reconstitution (saturated solution, filtered, HPLC); format: physicochemical; details: thermodynamic from solid
Procedure: Following the preparation of a saturate solution of the powders obtained, the same solution was filtered with a […] membrane and the filtered solution obtained was analysed by HPLC according to the method described previously.

[2] = Dissolution speed of the powder for reconstitution in water/PEG-400 (80/20); format: physicochemical; details: 25° C.
Procedure: The entire test was conducted in temperature conditions of 25° C.
After 1 minute of manual stirring the two solutions were left to settle for 1 minute.
After 1 minute of sedimentation, the supernatant solution was sampled by taking 1 ml of it and analysing it according to the HPLC method described previously.

[3] = Osmolality and pH of solutions for administration in Water/PEG 400; format: physicochemical
[4] = cited from earlier work
[5] = Water/PEG 400 ratio 70/30, melatonin 18 mg/ml
[6] = Water/PEG 400 ratio 75/25, melatonin 14 mg/ml
[7] = Water/PEG 400 ratio 80/20, melatonin 10 mg/ml
[8] = Water/PEG 400 ratio 85/15, melatonin 7 mg/ml
[9] = Water/PEG 400 ratio 90/10, melatonin 5 mg/ml

solubility ([1]; purified water, water, Water (Table 3a)): 1.8 mg/mL (≈ 7.75 mM) | solubility ([1]; purified water, water, Water (Table 3b)): 1.7 mg/mL (≈ 7.32 mM) | solubility ([1]; water/PEG-200 (75/25), aqueous with cosolvent or surfactant or cyclodextrin, Water-PEG 75/25, PEG 200): 10.5 mg/mL (≈ 45.2 mM) | solubility ([1]; water/PEG-350 (75/25), aqueous with cosolvent or surfactant or cyclodextrin, Water-PEG 75/25, PEG 350): 16.9 mg/mL (≈ 72.8 mM) | solubility ([1]; water/PEG-400 (75/25), aqueous with cosolvent or surfactant or cyclodextrin, Water-PEG 75/25, PEG 400): 14.5 mg/mL (≈ 62.4 mM) | solubility ([1]; water/PEG-400 (80/20), aqueous with cosolvent or surfactant or cyclodextrin, Water-PEG-400 ratio 80-20): 11.1 mg/mL | solubility ([1]; water/PEG-400 (90/10), aqueous with cosolvent or surfactant or cyclodextrin, Water-PEG-400 ratio 90-10): 5 mg/mL | solubility ([1]; water/ethanol (70/30), aqueous with cosolvent or surfactant or cyclodextrin, Water-Ethanol ratio 70-30): 19.7 mg/mL | solubility ([1]; water/ethanol (75/25), aqueous with cosolvent or surfactant or cyclodextrin, Water-Ethanol ratio 75-25): 14.2 mg/mL | solubility ([1]; water/ethanol (80/20), aqueous with cosolvent or surfactant or cyclodextrin, Water-Ethanol ratio 80-20): 8.2 mg/mL | solubility ([1]; water/ethanol (90/10), aqueous with cosolvent or surfactant or cyclodextrin, Water-Ethanol ratio 90-10): 3.7 mg/mL | Visual inspection of the preparation ([2]; 30 mg melatonin in 3 ml water/PEG-400 (80/20), 1 minute manual stirring, after 1 minute settling): presence of undissolved particulate | Concentration of melatonin in the supernatant solution ([2]; 30 mg melatonin in 3 ml water/PEG-400 (80/20), 1 minute stirring and 1 minute sedimentation): 7100 µg/mL | Concentration of melatonin in solution ([2]; water/PEG-400 (80/20), after 10 minutes of stirring): 7900 µg/mL | Osmolality [3, 5]: 1310 mOsm/Kg | pH [3, 5]: 5.2 | Osmolality [3, 6]: 1014 mOsm/Kg | pH [3, 6]: 5.2 | Osmolality [3, 7]: 754 mOsm/Kg | pH [3, 7]: 5.2 | Osmolality [3, 8]: 530 mOsm/Kg | pH [3, 8]: 5.2 | Osmolality [3, 9]: 335 mOsm/Kg | pH [3, 9]: 5.2
SMILES: COc1ccc2[nH]cc(CCNC(C)=O)c2c1 [Melatonin raw material, Melatonin]
Concentration of melatonin in plasma ([4]; endogenous, circulates bound to albumin): 0.01 to 0.3 ng/mL | Bioavailability ([4]; in vivo): approximately 15% | Clearance following first passage through the liver ([4]; in vivo): 90% | Half-life ([4]; in vivo): 30 to 60 min
